Results published in US20210069176A1, “Treating Autoimmune Disorders with Chloroquine and/or Hydroxychloroquine” (Attillaps Holdings, priority 2018, published 2021).

How the values were obtained:
Demodex mites = assay: in vitro Demodex survival time assay
Method: FIG. 4 summarizes the activity of 10% chloroquine in water relative to a water control on activity against Demodex mites in an in vitro assay, with an LT50 of 31.6 hours for chloroquine compared to 44.8 hours for the water control, illustrating the inactivation effect of chloroquine on Demodex.
Example 4: In vitro efficacy and mite lifetimes: Relative efficacy of various formulations are evaluated with a demodex survival time experiments. FIG. 3 tabulates demodex survival time, expressed in terms of LT50 (time at which 50% of demodex mites are killed) and/or average minutes to death for various active agents.

[1] = dichlorvos 1%, one patient; cited from earlier work

| Compound | LT50 (time at which 50% of demodex mites are killed) (Demodex mites; 10% chloroquine in water, water control 44.8 hours, FIG. 4) [h] | activity against Demodex mites (Demodex mites; in vitro assay, FIG. 3) | remission of Papulopostular Rosacea (PPR) [1] |
| --- | --- | --- | --- |
| CCN(CC)CCCC(C)Nc1ccnc2cc(Cl)ccc12 (stereo not drawn) [chloroquine] | 31.6 | has activity against Demodex mites | – |
| COP(=O)(OC)OC=C(Cl)Cl [dichlorvos] | – | – | complete and continued remission |
